ChEMBL document CHEMBL1133672, “Replacement of glycine with dicarbonyl and related moieties in analogues of the C-terminal pentapeptide of cholecystokinin: CCK(2) agonists displaying a novel binding mode” (J Med Chem, 2000)
Numbered stars: 1 amine (or outer) side, 2 acyl side, 3 side chain; on linkers, the order of the positions; unused ones are H or OH. Square brackets hold non-standard residues; d marks the D form. Peptide text beside a SMILES is read from it. * marks the point of attachment. NMeNle = CCCC[C@H](NC)C(=O)O; Suc = O=C(CCC(=O)[*:2])[*:1]; Malonamoyl = NC(=O)CC(=O)*; X3 = O=C(CS(=O)(=O)O)*; Boc = CC(C)(C)OC(=O)*; X2 = COC(=O)CC(=O)*; βAla = NCCC(=O)O

How the values were obtained:
[1] = target: T1, Gastrin/cholecystokinin type B receptor (Rattus norvegicus, UniProt P30553); assay: Affinity against Cholecystokinin type B receptor expressed in CHO cells on rat brain.; format: functional, cell-based
T1 sequence (P30553 whole entry): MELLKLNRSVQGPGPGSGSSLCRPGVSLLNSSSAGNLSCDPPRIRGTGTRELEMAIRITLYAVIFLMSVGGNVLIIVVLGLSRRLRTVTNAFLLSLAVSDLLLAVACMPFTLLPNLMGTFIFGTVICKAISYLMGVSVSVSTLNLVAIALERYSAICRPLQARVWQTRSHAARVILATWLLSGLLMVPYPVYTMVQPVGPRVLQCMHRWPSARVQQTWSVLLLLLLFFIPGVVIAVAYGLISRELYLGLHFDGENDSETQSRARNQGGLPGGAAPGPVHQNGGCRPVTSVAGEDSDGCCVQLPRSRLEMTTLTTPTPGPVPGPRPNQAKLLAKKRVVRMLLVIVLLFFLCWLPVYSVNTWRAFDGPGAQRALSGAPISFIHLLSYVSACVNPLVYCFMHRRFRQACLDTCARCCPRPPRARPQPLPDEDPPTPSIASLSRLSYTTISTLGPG

[2] = target: T2, Cholecystokinin receptor type A (Cavia porcellus, UniProt Q63931); assay: Affinity against Cholecystokinin type A receptor on guinea pig pancreatic membranes.
T2 sequence (Q63931 whole entry): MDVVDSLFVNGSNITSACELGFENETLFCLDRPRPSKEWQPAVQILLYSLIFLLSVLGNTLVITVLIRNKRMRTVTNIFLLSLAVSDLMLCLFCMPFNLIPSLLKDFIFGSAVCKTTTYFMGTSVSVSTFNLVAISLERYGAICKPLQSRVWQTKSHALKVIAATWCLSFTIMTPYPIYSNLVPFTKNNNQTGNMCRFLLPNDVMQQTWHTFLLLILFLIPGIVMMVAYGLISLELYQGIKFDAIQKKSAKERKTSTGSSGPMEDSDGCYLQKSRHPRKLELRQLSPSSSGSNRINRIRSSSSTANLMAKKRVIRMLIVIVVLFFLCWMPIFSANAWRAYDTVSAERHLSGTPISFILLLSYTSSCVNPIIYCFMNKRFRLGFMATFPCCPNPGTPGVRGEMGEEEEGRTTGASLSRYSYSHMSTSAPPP

[3] = target: Gastrin/cholecystokinin type B receptor (Cavia porcellus); assay: Binding affinity against cholecystokinin type B receptor on guinea pig cortex.
[4] = target: T1, Gastrin/cholecystokinin type B receptor; assay: Compound was tested for binding affinity against Cholecystokinin type B receptor expressed in CHO cells on the rat brain.; format: cell-based

Row | SMILES | Ki [2] | also measured
1 | CCCC[C@@H](C(=O)N[C@@H](CC(=O)O)C(=O)N[C@@H](Cc1ccccc1)C(N)=O)N(C)C(=O)[C@H](Cc1c[nH]c2ccccc12)NC(=O)CC(=O)OC (X2-W[NMeNle]DF-NH2) |  | EC50 [1]: 2 nM
2 | CCCC[C@H](NC(=O)[C@H](Cc1c[nH]c2ccccc12)NC(=O)[C@H]1CCCCNC(=O)C[C@H](NC(=O)OC(C)(C)C)C(=O)N[C@H](Cc2ccc(OS(=O)(=O)O)cc2)C(=O)N[C@@H](CCCC)C(=O)N1)C(=O)N[C@@H](CC(=O)O)C(=O)N[C@@H](Cc1ccccc1)C(N)=O | 2900 nM | 
3 | CCCC[C@@H](C(=O)N[C@@H](CC(=O)O)C(=O)N[C@@H](Cc1ccccc1)C(N)=O)N(C)C(=O)[C@H](Cc1c[nH]c2ccccc12)NC(=O)[C@H](C)N | > 3000 nM | 
4 | CCCC[C@@H](C(=O)N[C@@H](CC(=O)O)C(=O)N[C@@H](Cc1ccccc1)C(N)=O)N(C)C(=O)[C@H](Cc1c[nH]c2ccccc12)NC(=O)OC(C)(C)C (Boc-W[NMeNle]DF-NH2) | > 5000 nM | Ki [3]: 0.8 nM; Ki [4]: 2.6 nM
5 | CCCC[C@@H](C(=O)N[C@@H](CC(=O)O)C(=O)N[C@@H](Cc1ccccc1)C(N)=O)N(C)C(=O)[C@H](Cc1c[nH]c2ccccc12)NC(=O)[C@@H](C)N | > 3000 nM | 
6 | CCCC[C@@H](C(=O)N[C@@H](CC(=O)O)C(=O)N[C@@H](Cc1ccccc1)C(N)=O)N(C)C(=O)[C@H](Cc1c[nH]c2ccccc12)NC(=O)CC(N)=O (Malonamoyl-W[NMeNle]DF-NH2) | 22800 nM | EC50 [1]: 1.64 nM
7 | CCCC[C@@H](C(=O)N[C@@H](CC(=O)O)C(=O)N[C@@H](Cc1ccccc1)C(N)=O)N(C)C(=O)[C@@H](N)Cc1c[nH]c2ccccc12 (H-W[NMeNle]DF-NH2) | > 3000 nM | 
8 | CCCC[C@@H](C(=O)N[C@@H](CC(=O)O)C(=O)N[C@@H](Cc1ccccc1)C(N)=O)N(C)C(=O)[C@H](Cc1c[nH]c2ccccc12)NC(=O)CN (H-GW[NMeNle]DF-NH2) | > 3000 nM | 
9 | C[C@@]1(Cc2c[nH]c3ccccc23)NC(=O)CCCCCCC[C@@H](C(=O)N[C@@H](CC(=O)O)C(=O)N[C@@H](Cc2ccccc2)C(N)=O)NC1=O | 2210 nM | 
10 | CCCC[C@@H](C(=O)N[C@@H](CC(=O)O)C(=O)N[C@@H](Cc1ccccc1)C(N)=O)N(C)C(=O)[C@H](Cc1c[nH]c2ccccc12)NC(=O)CS(=O)(=O)O (X3-W[NMeNle]DF-NH2) |  | EC50 [1]: 0.56 nM
11 | CCCC[C@@H](C(=O)N[C@@H](CC(=O)O)C(=O)N[C@@H](Cc1ccccc1)C(N)=O)N(C)C(=O)[C@H](Cc1c[nH]c2ccccc12)NC(=O)CCC(=O)O (Suc-W[NMeNle]DF-NH2) | > 3000 nM | 
12 | CCCC[C@@H](C(=O)N[C@@H](CC(=O)O)C(=O)N[C@@H](Cc1ccccc1)C(N)=O)N(C)C(=O)[C@H](Cc1c[nH]c2ccccc12)NC(=O)CCNC(=O)OC(C)(C)C ({Boc-βAla}-W[NMeNle]DF-NH2) | 4620 nM | 
